# Several values for one entry are separate records, joined by “and”; a condition that tells them apart may be missing. Equal entries are not always repeated. Where two headings read alike, the source gives them in different places.
# Experiments:
# [1] = Mouse plasma PK after IV administration; assay type: in vivo; details: for AUC(0-inf): read-out: AUCINF_obs (converted); for MRT inf: read-out: MRTINF_obs
# Method: (§1) In vivo PK (pharmacokinetics) studies were run at Scripps Florida DMPK Core facility. Mouse plasma PK data was obtained using Compound Example 4 (N-(2-amino-5-(thiophen-2-yl)phenyl)-6-(8-methyl-2-oxo-1-oxa-3,8-diazaspiro[4.5]decan-3-yl)nicotinamide)
# (§2) Dose: 1 mg/kg intravenous (IV) and 7 mg/kg oral dosage (PO)
# (§3) Formulation: 0.1 mg/mL IV and 1 mg/mL PO solution in 10/10/80 DMSO/Tween80/Water
# (§4) Mice Info: Male C57 Bl/6J
# [2] = Brain exposure experiments in mice; assay type: in vivo, mouse; details: 1 hour after exposure
# Method: Brain exposure experiments were performed wherein mice were exposed to Compound Example 4 at an IV dosage of 1 mg/kg (Table 5).
# [3] = Mouse plasma PK after oral administration; assay type: in vivo
# Method: as §1, §2, §3, §4
# Human HDAC7 = biological target: T1, Human HDAC7 (Homo sapiens, UniProt Q8WUI4); test: Biochemical HDAC enzymatic assay, HDAC7; details: Table 2; incubation time 10 min
# T1 construct: (a.a. 518-end) with an N-terminal GST tag; GST tag (N); made in house; host or cells: baculovirus expression system
# T1 sequence (Q8WUI4 479-952 limits assumed): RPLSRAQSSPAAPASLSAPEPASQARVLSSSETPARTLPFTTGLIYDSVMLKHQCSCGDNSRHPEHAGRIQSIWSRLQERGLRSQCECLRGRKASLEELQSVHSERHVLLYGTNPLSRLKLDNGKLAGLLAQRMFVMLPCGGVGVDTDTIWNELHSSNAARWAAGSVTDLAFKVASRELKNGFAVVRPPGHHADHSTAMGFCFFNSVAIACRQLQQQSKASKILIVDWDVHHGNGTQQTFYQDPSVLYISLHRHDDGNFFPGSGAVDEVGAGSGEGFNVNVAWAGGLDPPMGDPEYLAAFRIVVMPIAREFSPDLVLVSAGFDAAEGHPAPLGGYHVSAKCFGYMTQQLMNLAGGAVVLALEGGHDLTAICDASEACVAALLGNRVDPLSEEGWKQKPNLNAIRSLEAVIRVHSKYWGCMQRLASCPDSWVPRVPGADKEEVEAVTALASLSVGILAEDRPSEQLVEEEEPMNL
# Method: Incubation time for HDAC1/2 is 120 min, and 10 min for other HDACs.
# Human HDAC7 (GenBank Accession No. AY302468), (a.a. 518-end) with an N-terminal GST tag, MW=78 kDa, was expressed in a baculovirus expression system.
# • I. Compound handling: Testing compounds were dissolved in 100% DMSO to a specific concentration. The serial dilution was conducted by epMotion 5070 in DMSO. • II. HDAC reaction buffer: 50 mM Tris-HCl, pH8.0, 137 mM NaCl, 2.7 mM KCl, and 1 mM MgCl2, Added fresh: 1 mg/ml BSA, 1% DMSO. • III. […] Delivered 2× Substrate Mixture (Fluorogenic HDAC Substrate and co-factor ([…] of Nicotinamide adenine dinucleotide (NAD^+) in all Sirt assay) in all reaction wells to initiate the reaction. Spin and shake. • d. Incubated for 1-2 hr. at 30° C. with seal. • e. Added Developer with Trichostatin A (or TMP269 or NAD^+) to stop the reaction and to generate fluorescent color. • f. Fluorescence was read (excitatory, 360; emission, 460) using the EnVision Multilabel Plate Reader (Perkin Elmer) • g. Endpoint reading was taken for analysis after the development reaches plateau. • V. Data Analysis: The percentages of enzyme activity (relative to DMSO controls) and IC50 values were calculated using the GraphPad Prism 4 program based on a sigmoidal dose-response equation. […]
# [4] = 1 mg/kg IV, individual mice, 1 mg/kg
# [5] = male, C57 Bl/6J, mouse, plasma, iv, 1 mg/kg, 1 mg/kg IV, Average
# [6] = male, C57 Bl/6J, mouse, plasma, iv, 1 mg/kg, 1 mg/kg IV, individual mice
# [7] = IV 1 mg/kg, individual mice (7, 8, 9), 1 mg/kg
# [8] = mouse plasma, 7 mg/kg PO, Average
# [9] = mouse plasma, 7 mg/kg PO, individual mice, 7 mg/kg
smiles,measurement,setting,value
"CN1CCC2(CC1)CN(c1ccc(C(=O)Nc3cc(-c4cccs4)ccc3N)cn1)C(=O)O2 [Example 4, N-(2-amino-5-(thiophen-2-yl)phenyl)-6-(8-methyl-2-oxo-1-oxa-3,8-diazaspiro[4.5]decan-3-yl)nicotinamide]",AUC (% Extrap),"[1]; 1 mg/kg IV, Average",1.08%
same,Cl_obs,"[1]; 1 mg/kg IV, Average",4.93 mL/min/kg
same,Vss_obs,"[1]; 1 mg/kg IV, Average",0.54 L/kg
same,T1/2,"[1]; 1 mg/kg IV, individual mice (Mouse-1 to Mouse-3), 1 mg/kg",1.33 h and 1.28 h
same,AUC (% Extrap),[1]; [4],0.30% and 1.04% and 1.89%
same,AUC last,[1]; [4],6.33 µM·h and 7.92 µM·h
same,AUCINF_obs,[1]; [4],177722 ng·min/mL and 224191 ng·min/mL
same,AUClast,[1]; [4],175879 ng·min/mL and 219951 ng·min/mL
same,Cl_obs,[1]; [4],4.70 mL/min/kg and 5.63 mL/min/kg and 4.46 mL/min/kg
same,Cmax,[1]; [4],2490 ng/mL and 2040 ng/mL
same,MRTINF_obs,[1]; [4],1.74 h and 1.97 h
same,Vss_obs,[1]; [4],0.50 L/kg and 0.59 L/kg and 0.53 L/kg
same,Cmax,"[1]; 1 mg/kg IV, individual mice, 1 mg/kg, read-out: Cmax",5.38 µM and 4.41 µM
same,clearance (in words),[1]; IV administration,low clearance
same,volume (in words),[1]; IV administration,low volume
same,Tmax,"[1]; male, C57 Bl/6J, 1 mg/kg IV, individual mice",4.8 min
same,AUC,"[1]; male, C57 Bl/6J, 1 mg/kg, IV administration",~7.3 µM·h
same,AUC(0-t),[1]; [5],3380 ng·h/mL and 7.3 µM·h
same,AUC(0-inf),[1]; [5],3420 ng·h/mL
same,Cmax,"[1]; male, C57 Bl/6J, mouse, plasma, iv, 1 mg/kg, 1 mg/kg IV, Average, read-out: Cmax",2030 ng/mL and 4.38 µM
same,MRT inf,[1]; [5],1.82 h
same,half-life,"[1]; male, C57 Bl/6J, mouse, plasma, iv, 1 mg/kg, 1 mg/kg IV, Average, read-out: T1/2 (converted)",1.16 h
same,AUC(0-t),[1]; [6],3540 ng·h/mL and 7.64 µM·h
same,half-life,"[1]; male, C57 Bl/6J, mouse, plasma, iv, 1 mg/kg, 1 mg/kg IV, individual mice (Mouse-1 to Mouse-3), read-out: T1/2 (converted)",0.86 h
same,AUC(0-inf),[1]; [6],3550 ng·h/mL
same,Cmax,"[1]; male, C57 Bl/6J, mouse, plasma, iv, 1 mg/kg, 1 mg/kg IV, individual mice, read-out: Cmax",1560 ng/mL and 3.37 µM
same,MRT inf,[1]; [6],1.76 h
same,half-life,"[1]; male, C57 Bl/6J, mouse, plasma, iv, 1 mg/kg, IV administration, read-out: half-life (T1/2) (converted)",1.2 h
same,brain penetration (in words),[2]; IV 1 mg/kg,very low brain penetration
same,Brain concentration,[2]; [7],61.9 ng/mL and 0 ng/mL and 73 ng/mL
same,Plasma concentration,[2]; [7],1030 ng/mL and 2.22 μM and 1620 ng/mL and 3.50 μM
same,concentration at 1 h,"[2]; IV 1 mg/kg, individual mice (7, 8, 9), 1 mg/kg, read-out: Brain concentration",0.13 µM and 0.00 µM and 0.16 µM
same,concentration at 1 h,"[2]; mouse, brain, iv, 1 mg/kg, Average, read-out: Brain concentration",67.5 ng/mL and 150 nM
same,concentration at 1 h,"[2]; mouse, plasma, iv, 1 mg/kg, Average, read-out: Plasma concentration",1440 ng/mL and 3.1 µM
same,concentration at 1 h,"[2]; mouse, plasma, iv, 1 mg/kg, individual mice (7, 8, 9), read-out: Plasma concentration",1660 ng/mL and 3.59 µM
same,AUC,"[3]; male, C57 Bl/6J, 7 mg/kg, mouse plasma, oral dosing, read-out: AUC (area under curve)",~16 µM·h
same,AUC(0-t),"[3]; male, C57 Bl/6J, mouse, plasma, po, 7 mg/kg, mouse plasma, 7 mg/kg PO, Average",7380 ng·h/mL and 15.9 µM·h
same,AUC(0-inf),"[3]; male, C57 Bl/6J, mouse, plasma, po, 7 mg/kg, mouse plasma, 7 mg/kg PO, Average, read-out: AUCINF_obs (converted)",7860 ng·h/mL
same,Cmax,"[3]; male, C57 Bl/6J, mouse, plasma, po, 7 mg/kg, mouse plasma, 7 mg/kg PO, Average, read-out: Cmax",2490 ng/mL and 5.39 µM
same,half-life,"[3]; male, C57 Bl/6J, mouse, plasma, po, 7 mg/kg, mouse plasma, 7 mg/kg PO, Average, read-out: T1/2 (converted)",1.9 h
same,half-life,"[3]; male, C57 Bl/6J, mouse, plasma, po, 7 mg/kg, mouse plasma, 7 mg/kg PO, individual mice (Mouse-1 to Mouse-3), read-out: T1/2 (converted)",1.65 h
same,Cmax,"[3]; male, C57 Bl/6J, mouse, plasma, po, 7 mg/kg, mouse plasma, 7 mg/kg PO, individual mice, read-out: Cmax",3200 ng/mL and 6.91 µM
same,half-life,"[3]; male, C57 Bl/6J, mouse, plasma, po, 7 mg/kg, mouse plasma, oral dosing, read-out: half-life (converted)",1.9 h
same,bioavailability,"[3]; male, C57 Bl/6J, plasma, 7 mg/kg, mouse, oral dosing, read-out: bioavailability (% F)",31%
same,bioavailability,"[3]; male, C57 Bl/6J, plasma, mouse, 7 mg/kg PO vs 1 mg/kg IV, Average, read-out: % F",31%
same,Tmax,"[3]; male, C57 Bl/6J, mouse plasma, 7 mg/kg PO, individual mice",1 h
same,AUC (% Extrap),[3]; [8],6.54%
same,Cl_obs,[3]; [8],16.34 mL/min/kg
same,T1/2,"[3]; mouse plasma, 7 mg/kg PO, individual mice (Mouse-1 to Mouse-3), 7 mg/kg",2.25 h and 1.78 h
same,AUC (% Extrap),[3]; [9],5.20% and 9.47% and 4.97%
same,AUCINF_obs,[3]; [9],690882 ng·min/mL and 335315 ng·min/mL and 388640 ng·min/mL
same,AUClast,[3]; [9],654948 min*ng/mL and 303573 min*ng/mL and 369340 min*ng/mL and 23.58 μM.hr and 10.93 μM.hr and 13.30 μM.hr
same,Cl_obs,[3]; [9],10.13 mL/min/kg and 20.88 mL/min/kg and 18.01 mL/min/kg
same,Cmax,[3]; [9],1930 ng/mL and 2350 ng/mL
same,Cmax,"[3]; mouse plasma, 7 mg/kg PO, individual mice, 7 mg/kg, read-out: Cmax",4.17 µM and 5.08 µM
"CN(C)C(=O)N1CCC2(CC1)c1ccccc1C(=O)N2Cc1ccc(C(=O)NO)cc1 [Compound Example 11, 2-(4-(hydroxycarbamoyl)benzyl)-N,N-dimethyl-3-oxospiro[isoindoline-1,4′-piperidine]-1′-carboxamide]",IC50,Human HDAC7,0.85 µM
"O=C(NO)c1ccc(CN2C(=O)c3ccccc3C23CCN(C2CC2)CC3)cc1 [Compound Example 12, 4-((1′-cyclopropyl-3-oxospiro[isoindoline-1,4′-piperidin]-2-yl)methyl)-N-hydroxybenzamide]",IC50,Human HDAC7,3.1 µM
